{
  "source": "patent US10150773B2",
  "about": "“N-substituted 8-[(2,6-difluorobenzyl)oxy]-2,6- dimethylimidazo[1,2-a]pyrazin-3-carboxamide derivatives as stimulators of soluble guanylate cyclase (SGC) for the treatment of cardiovascular diseases” (Bayer Pharma Aktiengesellschaft, priority 2015, dated 2018)",
  "tested_on": "recombinant guanylate cyclase reporter cell line",
  "assay": "Effect on a recombinant guanylate cyclase reporter cell line",
  "format": "cell-based",
  "conditions": "in some cases mean values from individual determinations",
  "experimental": "B-2. Effect on a Recombinant Guanylate Cyclase Reporter Cell Line\nThe cellular activity of the compounds according to the invention is determined using a recombinant guanylate cyclase reporter cell line, as described in F. Wunder et al., Anal. Biochem. 339, 104-112 (2005).\nRepresentative MEC values (MEC=minimum effective concentration) for the compounds of the invention are shown in the table below (in some cases as mean values from individual determinations): […]",
  "data": [
    {"smiles": "Cc1cn2c(C(=O)NC(C)(CO)c3nnn(C(F)F)n3)c(C)nc2c(OCc2c(F)cccc2F)n1", "note": "(racemic) [Example 2, rac-8-[(2,6-Difluorobenzyl)oxy]-N-{2-[2-(difluoromethyl)-2H-tetrazol-5-yl]-1-hydroxypropan-2-yl}-2,6-dimethylimidazo[1,2-a]pyrazine-3-carboxamide]", "values": [
      {"measurement": "MEC (minimum effective concentration)", "result": 0.10, "unit": "µM"}
    ]},
    {"smiles": "[2H]C([2H])([2H])CC(C)(N)CNC(=O)c1c(C)nc2c(OCc3c(F)cccc3F)nc(C)cn12", "note": "(single isomer, unassigned; enantiomer a) [Example 3, ent-N-[2-Amino-2-methyl(4,4,4-^2H3)butyl]-8-[(2,6-difluorobenzyl)oxy]-2,6-dimethylimidazo[1,2-a]pyrazine-3-carboxamide (Enantiomer A)]", "values": [
      {"measurement": "MEC (minimum effective concentration)", "result": 0.65, "unit": "µM"}
    ]},
    {"smiles": "Cc1cn2c(C(=O)NCC(C)(N)CC[Si](C)(C)C)c(C)nc2c(OCc2c(F)cccc2F)n1", "note": "(single isomer, unassigned; enantiomer a) [Example 4, ent-N-[2-Amino-2-methyl-4-(trimethylsilyl)butyl]-8-[(2,6-difluorobenzyl)oxy]-2,6-dimethylimidazo[1,2-a]pyrazine-3-carboxamide (Enantiomer A)]", "values": [
      {"measurement": "MEC (minimum effective concentration)", "result": 1.0, "unit": "µM"}
    ]},
    {"smiles": "Cc1cn2c(C(=O)NCC(C)(N)CC[Si](C)(C)C)c(C)nc2c(OCc2c(F)cccc2F)n1", "note": "(single isomer, unassigned; enantiomer b) [Example 5, ent-N-[2-Amino-2-methyl-4-(trimethylsilyl)butyl]-8-[(2,6-difluorobenzyl)oxy]-2,6-dimethylimidazo[1,2-a]pyrazine-3-carboxamide (Enantiomer B)]", "values": [
      {"measurement": "MEC (minimum effective concentration)", "result": 1.0, "unit": "µM"}
    ]},
    {"smiles": "Cc1cn2c(C(=O)N[C@@](C)(CO)c3nnc(C)s3)c(C)nc2c(OCc2c(F)cccc2F)n1", "note": "[Example 1, ent-8-[(2,6-Difluorobenzyl)oxy]-N-[(2S)-1-hydroxy-2-(5-methyl-1,3,4-thiadiazol-2-yl)propan-2-yl]-2,6-dimethylimidazo[1,2-a]pyrazine-3-carboxamide]", "values": [
      {"measurement": "MEC (minimum effective concentration)", "result": 0.65, "unit": "µM"}
    ]}
  ]
}
